Legend:
Adenosine A2 receptor = Adenosine A2 receptor (Rattus norvegicus, UniProt P29276+P30543)
Adenosine receptor A1 [1] = molecular target: T1, Adenosine receptor A1 (Cavia porcellus, UniProt P47745)
T1 sequence (P47745 whole entry): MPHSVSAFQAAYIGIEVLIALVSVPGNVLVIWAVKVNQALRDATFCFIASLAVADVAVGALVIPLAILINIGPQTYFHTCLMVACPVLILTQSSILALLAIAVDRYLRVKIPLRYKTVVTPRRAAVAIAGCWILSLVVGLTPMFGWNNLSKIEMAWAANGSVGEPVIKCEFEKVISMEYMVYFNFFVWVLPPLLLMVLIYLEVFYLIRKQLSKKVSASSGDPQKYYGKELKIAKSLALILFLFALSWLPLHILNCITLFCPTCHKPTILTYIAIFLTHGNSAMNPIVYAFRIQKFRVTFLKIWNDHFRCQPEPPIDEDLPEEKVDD
Description: Binding affinity against adenosine A1 receptor from guinea pig forebrain membranes, using N6-[3H]cyclohexyladenosine as radioligand.

Adenosine receptor A1 [2] = molecular target: T2, Adenosine receptor A1 (Rattus norvegicus, UniProt P25099); assay type: cell membranes, Membrane
T2 sequence (P25099 whole entry): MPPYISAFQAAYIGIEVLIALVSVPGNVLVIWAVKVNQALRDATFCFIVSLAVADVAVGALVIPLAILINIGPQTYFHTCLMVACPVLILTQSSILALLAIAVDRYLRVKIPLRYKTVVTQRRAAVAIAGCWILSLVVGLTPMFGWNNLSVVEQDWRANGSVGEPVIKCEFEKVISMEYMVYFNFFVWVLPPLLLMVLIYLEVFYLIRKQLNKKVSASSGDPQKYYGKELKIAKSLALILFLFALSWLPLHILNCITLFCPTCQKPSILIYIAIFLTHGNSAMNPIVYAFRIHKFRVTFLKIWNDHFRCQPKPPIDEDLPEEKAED

Adenosine receptor A1 [3] = molecular target: T2, Adenosine receptor A1
[4] = Water solubility of the compound; assay type: ADME; settings: read-out: S
[5] = molecular target: Adenosine receptor A2a (Homo sapiens) (UniProt P29274)
Sequence of Adenosine receptor A2a (Homo sapiens) (P29274 whole entry, looked up): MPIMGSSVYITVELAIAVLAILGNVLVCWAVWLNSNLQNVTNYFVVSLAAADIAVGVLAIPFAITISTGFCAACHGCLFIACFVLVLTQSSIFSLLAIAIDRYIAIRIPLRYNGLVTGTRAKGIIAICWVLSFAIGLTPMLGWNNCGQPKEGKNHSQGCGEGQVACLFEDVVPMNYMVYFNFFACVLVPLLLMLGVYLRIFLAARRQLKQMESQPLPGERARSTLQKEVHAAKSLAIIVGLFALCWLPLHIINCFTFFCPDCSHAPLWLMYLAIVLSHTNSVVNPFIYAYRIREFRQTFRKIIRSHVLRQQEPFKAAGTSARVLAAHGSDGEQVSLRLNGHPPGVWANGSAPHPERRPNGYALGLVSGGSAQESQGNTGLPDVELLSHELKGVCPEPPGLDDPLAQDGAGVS

Compound | Ki (Adenosine A2 receptor) [nM] | Ki (Adenosine receptor A1 [1]) [nM] | Ki ratio (Cavia porcellus) | other results
CCCn1c(=O)c2nc(/C=C/c3ccc(OC)c(OC)c3)[nH]c2n(CCC)c1=O | – | 1700 | – | –
CCCn1c(=O)c2nc(/C=C/c3ccc(OC)cc3)[nH]c2n(CCC)c1=O | 110 | > 100000 | – | –
CCCn1c(=O)c2[nH]c(-c3ccc(S(=O)(=O)N(C)CCN(C)C)cc3)nc2n(CCC)c1=O | – | 140 | – | Ki (Adenosine receptor A1 [2]): 13.9 nM
CCCn1c(=O)c2nc(/C=C/c3ccccc3)[nH]c2n(CCC)c1=O | 26 | 1800 | – | –
COc1cc(/C=C/c2nc3c(c(=O)n(C)c(=O)n3C)n2C)cc(OC)c1OC | – | > 100000 | – | –
CCCn1c(=O)[nH]c(=O)c2[nH]c(/C=C/c3cc(OC)c(OC)c(OC)c3)nc21 | 2200 | 820 | 0.37 | –
CCCn1c(=O)c2nc(/C=C/c3ccc(Cl)c(Cl)c3)[nH]c2n(CCC)c1=O | > 100000 | > 100000 | – | –
CCCn1c(=O)c2nc(/C(C)=C/c3ccccc3)[nH]c2n(CCC)c1=O | > 10000 | > 100000 | – | –
CCCCn1c(=O)c2nc(/C=C/c3cc(OC)c(OC)c(OC)c3)[nH]c2n(CCCC)c1=O | 93 | 1400 | 15 | –
CCCn1c(=O)c2c(nc(/C=C/c3ccc(OC)c(OC)c3)n2C)n(CCC)c1=O | – | – | – | solubility [4]: < 10 µg/mL; Ki (Adenosine receptor A1 [3]): 430 nM
CCCn1c(=O)c2nc(CCC3CCCC3)[nH]c2n(CCC)c1=O | 6000 | – | 0.053 | –
CCCn1c(=O)c2nc(C/C=C/c3ccccc3)[nH]c2n(CCC)c1=O | 1600 | 870 | 0.54 | –
CCCn1c(=O)c2c(nc(CCC3CCCC3)n2C)n(CCC)c1=O | > 10000 | 1300 | – | –
CCCn1c(=O)c2c(nc(/C=C/c3ccc(Cl)cc3)n2C)n(CCC)c1=O | 49 | > 10000 | – | –
CCCn1c(=O)c2c(nc(CCc3ccccc3)n2C)n(CCC)c1=O | 2200 | 1300 | 0.59 | –
CCCn1c(=O)c2nc(/C=C/c3ccc(Cl)cc3)[nH]c2n(CCC)c1=O | > 100000 | > 100000 | – | –
CCCn1c(=O)c2nc(CCc3ccccc3)[nH]c2n(CCC)c1=O | 6200 | 560 | 0.09 | –
CCCn1c(=O)c2nc(-c3ccc(S(=O)(=O)N(C)CCN(C)C)cc3)[nH]c2n(CCC)c1=O | – | – | 5.4 | –
CCCn1c(=O)c2c(nc(C/C=C/c3ccccc3)n2C)n(CCC)c1=O | 1800 | 3500 | 1.9 | –
C=CCn1c(=O)c2c(nc(/C=C/c3cc(OC)c(OC)c(OC)c3)n2C)n(CC=C)c1=O | – | > 100000 | – | –
CCCn1c(=O)c2c(nc(/C(C)=C/c3ccccc3)n2C)n(CCC)c1=O | > 10000 | > 10000 | – | –

Further lines, with some results ahead:

Ki (Adenosine A2 receptor) [nM] | Ki (Adenosine receptor A1 [1]) [nM] | Ki ratio (Cavia porcellus) | Compound | other results
7500 | > 100000 | – | CCCn1c(=O)c2c(nc(/C=C/c3ccc(Cl)c(Cl)c3)n2C)n(CCC)c1=O | –
– | 320 | – | CCCn1c(=O)c2[nH]c(CCC3CCCC3)nc2n(CCC)c1=O | –
47 | > 100000 | > 2100 | C=CCn1c(=O)c2nc(/C=C/c3cc(OC)c(OC)c(OC)c3)[nH]c2n(CC=C)c1=O | –
15 | 720 | 48 | CCCn1c(=O)c2c(nc(/C=C/c3ccccc3)n2C)n(CCC)c1=O | Ki (Adenosine receptor A1 [3]): 220 nM
18 | 1400 | 78 | CCCn1c(=O)c2c(nc(/C=C/c3ccc(OC)cc3)n2C)n(CCC)c1=O | Ki (Adenosine receptor A1 [3]): 340 nM
52 | 2300 | 44 | CCCCn1c(=O)c2c(nc(/C=C/c3cc(OC)c(OC)c(OC)c3)n2C)n(CCCC)c1=O | –
14 | 2100 | 150 | CCCn1c(=O)c2c(nc(/C=C/c3cc(OC)c(OC)c(OC)c3)n2C)n(CCC)c1=O | Ki (Adenosine receptor A1 [3]): 1100 nM
– | > 100000 | – | COc1cc(/C=C/c2nc3c(=O)n(C)c(=O)n(C)c3[nH]2)cc(OC)c1OC | –
> 100000 | 8100 | 0.26 | CCCn1c(=O)c2c(nc(C3CCCC3)n2C)n(CCC)c1=O | Kb [5]: 220 nM
